Data from patent US9586896B2, “Nitroxyl donors with improved therapeutic index” (Cardioxyl Pharmaceuticals, Inc., priority 2013, dated 2017).
Values after ≈ are worked out from the molar mass of the structure shown.

Columns and labels:
[1] = Nitroxyl production via N2O quantification (GC headspace analysis); type: physicochemical; details: PBS, 37° C.
From the text: Nitrous oxide (N2O) is produced via the dimerization and dehydration of HNO, and is the most common marker for nitroxyl production (Fukuto et al., Chem. Res. Toxicol. 18:790-801 (2005)). […] Using either nitrous oxide gas or Angeli's salt (AS) as a standard, the relative amounts of N2O released from compounds of the disclosure was examined via gas chromatography (GC) headspace analysis.
A procedure for determining the relative amounts of N2O released from compounds of the disclosure is as follows. GC was performed on an Agilent gas chromatograph equipped with a split injector (10:1 splitting), microelectron capture detector, and a HP-MOLSIV 30 m×0.32 mm×25 μm molecular sieve capillary column. Helium was used as the carrier (4 mL/min) gas and nitrogen was used as the make-up (20 mL/min) gas. The injector oven and the detector oven were kept at 200° C. and 325° C., respectively. All nitrous oxide analyses were performed with the column oven held at a constant temperature of 200° C.
All gas injections were made using an automated headspace analyzer. Vial pressurization was 15 psi. The analyzer's sample oven, sampling valve, and transfer line were kept at 40° C., 45° C., and 50° C., respectively. The oven stabilization, vial pressurization, loop fill, loop equilibration, and sample injection times were 1.00 min., 0.20 min., 0.20 min., 0.05 min., and 1.00 min., respectively.
All determinations used a batch of nominal 20 mL headspace vials with volumes pre-measured for sample uniformity (actual vial volume varied by ≦2.0% relative standard deviation (n=6)). The average vial volume for the batch was determined from six randomly-selected vials by calculating the weight difference between the capped and sealed empty (i.e., air-filled) vial and the capped and sealed deionized water-filled vial using the known density of deionized water, then averaging. Blanks were prepared by sealing and capping two vials then purging each for 20 seconds with a gentle argon stream. […]

[2] = Solubility in water in the absence of excipients; type: physicochemical; details: for solubility thermodynamic: thermodynamic from solid, read-out: equilibrium solubility in water
Method: Additionally, a sample of the compound of formula (1) was prepared in water to determine the approximate solubility of the compound in the absence of excipients (e.g., CAPTISOL®). A concentration of approximately 300 mg/mL was achieved, not accounting for the volume contribution of the compound. The pH of the sample was determined to be 2.8, which was adjusted to the target of 4.0 using 0.1 N NaOH. Upon pH adjustment, precipitation of a small amount of solid was observed. […] A similar analysis was performed for the compound of formula (2). The compound of formula (2) has a solubility of approximately 10 mg/mL.

| Structure (SMILES) | Relative N2O Yield (90 minute incubation) [1] | Relative N2O Yield (360 minute incubation) ([1]; 360 minute incubation) | solubility thermodynamic ([2]; water, no excipients) | pH of the sample in water ([2]; approximately 300 mg/mL in water before pH adjustment) | solubility ([2]; water without excipients, pH 2.8, thermodynamic from solid, water, no excipients, not accounting for the volume contribution of the compound, read-out: concentration achieved in water) | observed solution concentration by HPLC ([2]; water, after pH adjustment to 4.0 with 0.1 N NaOH) |
| --- | --- | --- | --- | --- | --- | --- |
| CS(=O)(=O)c1cccc(S(=O)(=O)NO)c1 [(2), N-Hydroxy-3-methanesulfonylbenzene-1-sulfonamide] | 82% | 94% | ~10 mg/mL (≈ 39.8 mM) | – | – | – |
| Cc1ccc(S(=O)(=O)NO)o1 [Compound (1), N-Hydroxy-5-methylfuran-2-sulfonamide] | 52% | – | > 100 mg/mL | 2.8 | ≥ 300 mg/mL | 268 mg/mL |
